The record followed here is US12492194B2, “HPK1 inhibitors” (Janssen Pharmaceutica NV, priority 2019, dated 2025).

Molecules are shown by their SMILES.

The target of one assay is T1, full-length human Hpk1 (Homo sapiens, UniProt Q92918).
T1 construct: A recombinant fusion protein consisting of full-length human Hpk1; GST (N)
In words: HPK1 kinase assay (ADP Glo Kinase Assay). Type of assay: biochemical. The conditions noted are these: full-length human GST-Hpk1, ADP Glo, 75 μM ATP; for IC50: read-out: Hpk1 biochemical (pIC50) (converted). The protocol: Pharmacological Part HPK1 Kinase Assay
A recombinant fusion protein consisting of full-length human Hpk1 with an N-terminal Glutatione S-transferase (GST) tag was produced in a baculovirus/insect cell expression system. GST-Hpk1 protein was purified from cell lysates by glutathione sepharose affinity chromatography. Kinase inhibition was determined using the ADP Glo™ Kinase Assay kit (Promega, V9101). Test compounds were prepared by serial dilution in dimethyl sulfoxide (DMSO) and 0.1 μl of each dilution was spotted onto a 384-well white Proxiplate (Perkin Elmer, 6008289). 8 μl of kinase assay buffer (40 mM Tris pH 7.5, 2 mM dithiothreitol (DTT), 0.05% Bovine Serum Albumin, 5 mM MgCl2) containing Hpk1 protein was transferred to each well and incubated for 30-45 minutes at room temperature. The enzymatic reaction was started by adding 2 μl of kinase assay buffer containing 75 μM ATP. After 120 minutes, the reaction was stopped by adding 3 μl of ADP Glo™ reagent (Promega, V9101) and incubating 45 minutes at room temperature.
In general terms: ADP-Glo first removes unused ATP, then detects ADP through luciferase.

A further assay concerns the target Hpk1 (Homo sapiens, UniProt Q92918). In words: SLP76 phosphorylation assay (SLP76 pS376 in lysates of HEK293 cells engineered to express Hpk1 and SLP76). Type of assay: cell-based. The settings on record: HEK293 cells expressing Hpk1 and SLP76, 4 hours incubation; for IC50: read-out: pSLP76 (HEK293) (pIC50) (converted). As for the experimental part:
SLP76 Phosphorylation Assay
Hpk1 inhibition in cells was determined by detection of SLP76 phosphorylation at S376 in lysates from HEK293 cells engineered to express Hpk1 and SLP76. Serial dilutions of test compounds were prepared in cell culture medium and 20 μl was transferred into each well of a 96-well plate containing HEK293 cells in 180 μl of culture medium. After incubation for 4 hours at 37° C./5% CO2, the culture medium was removed, plates were put on ice and cells washed with cold Minimal Essential Medium before lysing in 90 μl of cold Mammalian Protein Extraction Reagent (Thermo Scientific, 78501) for 30 minutes on ice. The cell lysates were transferred to another 96-well plate, centrifuged 10 minutes at 3000 rcf (4° C.) and 30 μl transferred to a 96-well High-bind plate (MSD, L15XB-3). After coating overnight at 4° C., the cell lysate was removed, wells were washed with base buffer (TBS, 0.2% Tween-20), and blocking solution (base buffer containing 3% MSD blocker A) was added to each well for 1 hour at room temperature. The blocking solution was removed, the wells were washed with base buffer, and detection antibody (SLP76 pS376) was added in 25 μl base buffer containing 1% MSD blocker A to each well. After a 2 h incubation at room temperature, the detection antibody was removed, wells were washed four times with base buffer, 25 μl SULFO-TAG labeled goat anti-rabbit secondary antibody (MSD, R32AB-1) in base buffer containing 1% MSD blocker A was added to each well and left for 1 hour at room temperature. Wells were washed 4 times with base buffer, 150 μl Read Buffer T was added to each well, and the plates were read in a Mesoscale plate reader (MSD). IC50 values were determined by curve-fitting the electrochemiluminescent signals obtained from the lysates of HEK293 cells expressing Hpk1 and SLP76 treated with test compounds at various concentrations minus the signal obtained from HEK293 cells expressing SLP76 only.

Hpk1, sequence (Q92918 whole entry): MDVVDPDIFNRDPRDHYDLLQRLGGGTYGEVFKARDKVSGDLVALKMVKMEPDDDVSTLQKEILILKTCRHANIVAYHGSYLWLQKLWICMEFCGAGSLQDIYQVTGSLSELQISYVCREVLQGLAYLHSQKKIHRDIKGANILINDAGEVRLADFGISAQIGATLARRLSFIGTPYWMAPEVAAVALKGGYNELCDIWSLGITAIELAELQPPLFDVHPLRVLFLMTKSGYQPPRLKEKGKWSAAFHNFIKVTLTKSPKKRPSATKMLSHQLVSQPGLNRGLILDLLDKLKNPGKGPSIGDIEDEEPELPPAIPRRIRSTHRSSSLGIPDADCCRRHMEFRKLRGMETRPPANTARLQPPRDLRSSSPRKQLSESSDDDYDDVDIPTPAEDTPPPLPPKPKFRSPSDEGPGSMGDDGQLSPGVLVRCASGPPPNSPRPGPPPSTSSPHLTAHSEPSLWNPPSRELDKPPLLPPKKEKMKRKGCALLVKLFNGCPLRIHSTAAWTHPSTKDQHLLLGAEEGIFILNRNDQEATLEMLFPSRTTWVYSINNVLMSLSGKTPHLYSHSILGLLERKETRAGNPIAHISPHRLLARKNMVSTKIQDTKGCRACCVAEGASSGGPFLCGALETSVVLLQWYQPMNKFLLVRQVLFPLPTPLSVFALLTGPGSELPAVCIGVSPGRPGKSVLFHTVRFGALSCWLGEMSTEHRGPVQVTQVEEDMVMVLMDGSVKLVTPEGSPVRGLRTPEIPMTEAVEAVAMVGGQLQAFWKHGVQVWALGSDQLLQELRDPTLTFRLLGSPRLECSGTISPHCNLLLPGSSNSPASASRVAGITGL
T1 sequence (Q92918 whole entry, the tested form may be a part): as the sequence (Q92918 whole entry) above

Take `CO[C@H]1CC[C@@H](c2ccc(-c3cnc(N)c(-c4ccnc(F)c4)c3)cc2[C@@H]2CCCN2)CC1` [Co. 51]: the IC50 on full-length human Hpk1 is 18.2 nM; on Hpk1 it was 550 nM.

In the case of `Nc1ncc(-c2ccc(C3CC4(COC4)C3)c([C@@H]3CCCN3)c2)cc1-c1ccnc(F)c1` [Co. 52], the results for the IC50 at full-length human Hpk1 and on Hpk1 were 38.9 nM and 851 nM, respectively.

On to `Nc1ncc(-c2ccc(C3CCOCC3)c([C@@H]3CCCN3)c2)nc1C(F)(F)F` [Co. 53], for which the IC50 on full-length human Hpk1 was 15.8 nM; at Hpk1, 977 nM.

For the molecule `Nc1ncc(-c2ccc(C3COC3)c([C@@H]3CCCN3)c2)cc1-c1ccnc(F)c1` [Co. 54], the IC50 at full-length human Hpk1 was 457 nM; at Hpk1, above 10000 nM.

`Nc1ncc(-c2ccc(C3CCOCC3)c([C@@H]3CCCN3)c2)cc1C1=CCS(=O)(=O)CC1` [Co. 55]: the figures for the IC50 at full-length human Hpk1 and at Hpk1 were 95.5 nM and above 10000 nM, respectively.

In the case of `Nc1ncc(-c2ccc(C3CCOCC3)c([C@@H]3CCCN3)c2)cc1-c1cc[nH]c(=O)c1` [Co. 57], the IC50 was 26.3 nM at full-length human Hpk1 and above 10000 nM on Hpk1.

As to `N#Cc1ccc(-c2cnc(N)c(-c3ccnc(F)c3)c2)cc1[C@@H]1CCCN1` [Co. 60], the IC50 on full-length human Hpk1 was 251 nM; at Hpk1, above 10000 nM.

Take `N#Cc1cc(-c2cc(-c3ccc(C4CCOCC4)c([C@@H]4CCCN4)c3)cnc2N)ccn1` [Co. 61]: the IC50 at full-length human Hpk1 was 34.7 nM; at Hpk1, 3980 nM.

On to `Nc1ncc(-c2ccc(C3CCOCC3)c([C@@H]3CCCN3)c2)cc1-c1ccc(F)cc1` [Co. 62], for which the results for the IC50 at full-length human Hpk1 and at Hpk1 were 31.6 nM and 1070 nM, respectively.

Regarding `Nc1ncc(-c2ccc(C3CCOCC3)c([C@@H]3CCCN3)c2)cc1-c1ccnc(C(F)(F)F)c1` [Co. 63], the IC50 was 58.9 nM on full-length human Hpk1 and 5370 nM on Hpk1.

`[2H]c1cc(-c2cc(-c3ccc(C4CCOCC4)c([C@@H]4CCCN4)c3)cnc2N)ccn1` [Co. 64]: the values for the IC50 on full-length human Hpk1 and at Hpk1 were 17 nM and 380 nM, respectively.

Take `[2H]c1cc(-c2cc(-c3ccc(C4CCOCC4)c([C@@H]4CCCN4)c3)cnc2N)cc([2H])n1` [Co. 65]: the results for the IC50 on full-length human Hpk1 and at Hpk1 were 26.9 nM and 1200 nM, respectively.

Regarding `Nc1ncc(-c2ccc(C3CCOCC3)c(C3CCCN3)c2)cc1-c1cc[n+]([O-])cc1` (stereo not drawn) [Co. 66], the IC50 was 85.1 nM at full-length human Hpk1 and above 10000 nM on Hpk1.

As for `CN(C)Cc1cc(-c2cnc(N)c(-c3ccnc(N4CCNCC4)c3)c2)ccc1C1CCOCC1` [Co. 67], the IC50 on full-length human Hpk1 is 46.8 nM; on Hpk1, 1660 nM.

Regarding `Cn1cc(-c2cc(-c3ccc(C4CCOCC4)c([C@@H]4CCCN4)c3)cnc2N)cn1` [Co. 68], the IC50 on full-length human Hpk1 is 6.31 nM; on Hpk1, 1410 nM.

Regarding `Cc1cc(-c2cc(-c3ccc(C4CCOCC4)c(CN(C)C)c3)cnc2N)ccn1` [Co. 70], the IC50 at full-length human Hpk1 is 115 nM; at Hpk1, 4370 nM.

Regarding `COc1cc(-c2cc(-c3ccc(C4CCOCC4)c(CN(C)C)c3)cnc2N)ccn1` [Co. 71], the IC50 at full-length human Hpk1 was 41.7 nM; on Hpk1 it was 2040 nM.

Turning to `CN(C)Cc1cc(-c2cnc(N)c(-c3ccncc3F)c2)ccc1C1CCOCC1` [Co. 72], the figures for the IC50 on full-length human Hpk1 and on Hpk1 were 40.7 nM and 2290 nM, respectively.

As for `CN(C)Cc1cc(-c2cnc(N)c(-c3ccncc3)c2)ccc1C1CCOCC1` [Co. 73], the IC50 on full-length human Hpk1 is 42.7 nM; at Hpk1, 1550 nM.

On to `CN(C)Cc1cc(-c2cnc(N)c(-c3ccnc(NCCO)c3)c2)ccc1C1CCOCC1` [Co. 74], for which the IC50 at full-length human Hpk1 is 56.2 nM; at Hpk1, 1860 nM.

As for `CN(C)Cc1cc(-c2cnc(N)c(-c3ccnc(NCCCO)c3)c2)ccc1C1CCOCC1` [Co. 75], the IC50 is 41.7 nM at full-length human Hpk1 and 2290 nM on Hpk1.

Regarding `CN(C)Cc1cc(-c2cnc(N)c(-c3ccccc3)c2)ccc1C1CCOCC1` [Co. 76], the IC50 at full-length human Hpk1 is 34.7 nM; at Hpk1 it was 1950 nM.

As to `CN(C)Cc1cc(-c2cnc(N)c(-c3ccncn3)c2)ccc1C1CCOCC1` [Co. 77], the IC50 on full-length human Hpk1 was 14.1 nM; on Hpk1 it was 2570 nM.

Turning to `Nc1ncc(-c2ccc(C3CCOCC3)c([C@@H]3COCCN3)c2)cc1Br` [Co. 78], the values for the IC50 on full-length human Hpk1 and at Hpk1 were 8.13 nM and 912 nM, respectively.

Turning to `C[C@H]1CN[C@H](c2cc(-c3cnc(N)c(Br)c3)ccc2C2CCOCC2)CO1` [Co. 79], the IC50 on full-length human Hpk1 is 25.7 nM; at Hpk1, 794 nM.

Consider `Nc1ncc(-c2ccc(C3CCOCC3)c([C@@H]3COCCN3)c2)cc1-c1ccncc1` [Co. 80a], for which the results for the IC50 at full-length human Hpk1 and at Hpk1 were 14.5 nM and 851 nM, respectively.

`Nc1ncc(-c2ccc(C3CCOCC3)c([C@H]3COCCN3)c2)cc1-c1ccncc1` [Co. 80b]: the values for the IC50 at full-length human Hpk1 and on Hpk1 were 3720 nM and above 10000 nM, respectively.

For the molecule `Cn1cc(-c2cc(-c3ccc(C4CCOCC4)c([C@@H]4COCCN4)c3)cnc2N)cn1` [Co. 81], the IC50 at full-length human Hpk1 was 15.5 nM; at Hpk1, 813 nM.

On to `Nc1ncc(-c2ccc(C3CCOCC3)c([C@@H]3COCCN3)c2)cc1-c1ccnc(F)c1` [Co. 82], for which the results for the IC50 at full-length human Hpk1 and on Hpk1 were 8.71 nM and 126 nM, respectively.

For the molecule `Cn1cc(-c2nc(-c3ccc(C4CCOCC4)c([C@@H]4COCCN4)c3)cnc2N)cn1` [Co. 84], the IC50 at full-length human Hpk1 is 25.1 nM; on Hpk1, 479 nM.

For the molecule `Nc1ncc(-c2ccc(C3CCOCC3)c([C@@H]3COCCN3)c2)cc1Cl` [Co. 85], the figures for the IC50 at full-length human Hpk1 and at Hpk1 were 38 nM and 1150 nM, respectively.

With `Cc1cc(-c2ccc(C3CCOCC3)c([C@@H]3COCCN3)c2)cnc1N` [Co. 86], the IC50 at full-length human Hpk1 was 120 nM; at Hpk1, 3980 nM.

For the molecule `COc1cc(-c2ccc(C3CCOCC3)c([C@@H]3COCCN3)c2)cnc1N` [Co. 87], the IC50 on full-length human Hpk1 is 47.9 nM; on Hpk1, 1100 nM.

Consider `Nc1ncc(-c2ccc(C3CCOCC3)c([C@@H]3COCCN3)c2)cc1F` [Co. 88], for which the IC50 at full-length human Hpk1 was 112 nM; on Hpk1, 4170 nM.

Take `N#Cc1cc(-c2ccc(C3CCOCC3)c([C@@H]3COCCN3)c2)cnc1N` [Co. 89]: the results for the IC50 at full-length human Hpk1 and on Hpk1 were 21.4 nM and 851 nM, respectively.

As to `C[C@H]1CN[C@H](c2cc(-c3cnc(N)c(-c4cnn(C)c4)n3)ccc2C2CCOCC2)CO1` [Co. 90], the IC50 is 35.5 nM at full-length human Hpk1 and 1230 nM at Hpk1.

For `C[C@@H]1CN[C@@H](c2cc(-c3cnc(N)c(-c4ccnc(F)c4)c3)ccc2C2CCOCC2)CO1` [Co. 92], the IC50 on full-length human Hpk1 is 1950 nM; at Hpk1 it was above 10000 nM.

As to `C[C@H]1CN[C@H](c2cc(-c3cnc(N)c(-c4ccnc(F)c4)c3)ccc2C2CCOCC2)CO1` [Co. 94], the IC50 at full-length human Hpk1 was 12.9 nM; on Hpk1 it was 575 nM.

Take `Nc1ncc(-c2ccc(C3CCOCC3)c([C@@H]3CCCN3)c2)cc1C1CCOCC1` [Co. 95]: the IC50 is 43.7 nM on full-length human Hpk1 and 2240 nM on Hpk1.

For `CC(=O)N1CCC(c2cc(-c3ccc(C4CCOCC4)c([C@@H]4CCCN4)c3)cnc2N)CC1` [Co. 96], the “Hpk1 biochemical (pIC50)” value on full-length human Hpk1 worked out at 6.84. Further, at Hpk1, the “pSLP76 (HEK293) (pIC50)” value came to 5.1.

In the case of `CS(=O)(=O)N1CCC(c2ccc(-c3cnc(N)c(-c4ccnc(F)c4)c3)cc2[C@@H]2CCCN2)CC1` [Co. 98], the IC50 at full-length human Hpk1 is 26.3 nM; at Hpk1 it was 724 nM.

Consider `Nc1ncc(-c2ccc(C3CCSCC3)c([C@@H]3CCCN3)c2)cc1-c1ccnc(F)c1` [Co. 99], for which the IC50 at full-length human Hpk1 was 21.4 nM; at Hpk1, 646 nM.
